Values of other authors, collected in paper PMC12664280, “Integrative transcriptomics and peptidomics approach reveals unexpectedly diverse endogenous secretory peptides in Odorrana grahami frog skin” (BMC Biology, 2025).
Bridges are numbered along the chain shown (N, C = ends). Where no end group is shown, it is not given here.

Tested on: skin wound
Settings: previously reported ESPs in Odorrana grahami, Table S1; cited from earlier work
Excerpt: Supplement 12915_2025_2463_MOESM1_ESM.xlsx, sheet "Table S1" | column: Previously reported ESPs in Odorrana grahami || The cathelicidin family: In this study, we report two new ESPs, OG-CATH1 and OG-CATH2, with OG-CATH1 corresponding to two precursor proteins. These peptides are similar to OL-CATH1 and OL-CATH2 from the skin of O. livida, and Cathelicidin-RC1 from frog L. catesbeianus (Fig. S12). However, they show low similarity (20.3%, data not shown) to Cathelicidin-OA1 from the skin of O. andersonii.

Substance | Functional effect: wound-healing
ATAWDFGPHGLLPIRPIRIRPLCG [odorranain-M1] | wound-healing
APFRMGICTTN [odorregulin-E1] | wound-healing

Tested on: HaCat cells
Parameters: method as in PMID 18455266
Settings: mechanically injured HaCat cells; enhancing the expression of CXCL8, TGFβ, COX-2, VEGF and TLR2; ref [94]; cited from earlier work

Substance | In vitro wound healing potential
bombesin | in vitro wound healing potential

Tested on: not given
Settings: annotation in words; no reference given, so it comes from the DADP database (table note); ref DADP database; cited from earlier work
Excerpt: Supplement 12915_2025_2463_MOESM1_ESM.xlsx, sheet "Table S8" | column: Functional effect

Substance | Functional effect
GIFTLIKGAAKLIGKTVAKEAGKTGLELMACKITNQC [Esculentin-2-RA2] | antimicrobial
FLPAVIRVAANVLPTAFCAISKKC [Brevinin-1-RAA10] | antimicrobial
GFMDTAKNVAKNMAVTLLDNLKCKITKAC [Odorranain-F-RA1] | antimicrobial
VVKCSYRLGSPDSQCN [Odorranain-A-RA7] | antimicrobial
GLFSKFVGKGIKNFLIKGVKHIGKEVGMDVIRVGIDVAGCKIKGVC [Esculentin-1-OA1] | antimicrobial
GLFSKFSGKGIKNFLIKGVKHIGKEVGMDVIRTGIDVAGCKIKGEC [Esculentin-1-OA2] | antimicrobial
FMPILSCSRFKRC [Odorranain-G-RA2] | antimicrobial
GVLATVKNLLNGTGDGAAQSVLKTLSCKLSNDC [Brevinin-2-OA8] | antimicrobial
GFMDTAKNVAKNEAGNLLDNLKCKITKAC [Odorranain-F-OA3] | antimicrobial
FLPKLFAGIISKNF [Andersonin-Y2] | antimicrobial
GLFTLIKGAYKNDAPTVACN [Odorranain-J-OA2] | antimicrobial
FLPPSPWKETFRTS [Odorranain-S-RA] | antimicrobial
GLFSKFAGKGIKNLIFKGVKHIGKEVGMDVIRTGIDVAGCKIKGEC [Esculentin-1-RA7] | antimicrobial
GLFSKFAGKGIKDLIFKGVKHIGKEVGMDVIRTGIDVAGCKIKGEC [Esculentin-1-RA8] | antimicrobial
GLFSKFAGKGIKNFLNKGVKHIGKE [Esculentin-1-OA6] | antimicrobial
AALRGCWTKSIPPKPCSGKR [Odorranain-B-RA1] | antimicrobial
GLLSGILGAGKHIVCGLSGLC [Nigrosin-RA2] | antimicrobial
VIPFVASVAAEMMQHVYCAASKKC [Odorranain-P-RA2] | antimicrobial
GILDTFKNMALNAAKSAGVSVLNALSCKLSKTC [Brevinin-2-RA9] | antimicrobial
GFMATAKNVAKNMDVTLLDNLKCKITKAC [Odorranain-F-OA4] | antimicrobial
ATNIPFKVHFRCKAAFC [Ranatuerin-2R-RA1] | antimicrobial
GLLRASSVWGRKYYVDLAGCAKA [Odorranain-W-RA1] | antimicrobial
GFMDTAKNVAKNMAGNLLDNLKCKITKAC [Odorranain-F-OA1] | antimicrobial

Substance | Functional effect
FLPKLFAKITKKNMAHIR [Andersonin-Y1] | antimicrobial
GLFSKFAGKGIVNFLIEGVE [Andersonin-X1] | antimicrobial
GVLGTVKDLLIGAGKSAAQSTLKTLSCKISNDC [Brevinin-2-OA7] | antimicrobial
VIVFVASVAAEMMQHVYCAASKKC [Odorranain-P-RA1] | antimicrobial
GLFTLIKGAAKLIGKTTAKEAGKTGKLEMACKITNQC [Esculentin-2-OA2] | antimicrobial
GLFSKFAGKGIKNFLIKGVKHIGKEVGMDVIRTGIDVAGCKIKGEC [Esculentin-1-RA5] | antimicrobial
GLLDTFKNLALNAAKSAGVSVLNSLSCKLSKTC [Brevinin-2-RA11] | antimicrobial
GIFGKILGVGKKTLCELSGMC [Nigrocin-1-OA2] | antimicrobial
GCSRWIIGIHGQICRD [Odorranain-U-RA] | antimicrobial
DANVENGEDAEDLTDKFIGLMG [Andersonin-6] | immunomodulating
GVLATVKNLLIGTGDGAAQSVLKTLSCKLSNDC [Brevinin-2-OA6] | antimicrobial
GLFTLIKGAYKLDAPTVACN [Odorranain-J-OA1] | antimicrobial
GLLDTFKNMALNAAKSAGVSVLNALSCKLSKTC [Brevinin-2-OA2] | antimicrobial
GLLDTFKNLALNAAESAGVSVLNSLSCKLSKTC [Brevinin-2-RA5] | antimicrobial
GLLDTFKNMAINAAHGAGVSVLNALSCKLKKTC [Brevinin-2-OA3] | antimicrobial
GLFTLIKGAAKLIGKTVAKEAGKTGLELMACKITNQC [Esculentin-2-OA3] | antimicrobial
GIFLKVLGVGKKVLCGVSGLC [Nigrocin-1-OA3] | antimicrobial
GLLDGILNANFNAAKSAGTSVLNALSCKLSKTC [Brevinin-2-OA5] | antimicrobial
AVNIPFKVHFRCKAAFC [Ranatuerin-2R-RA2] | antimicrobial
DCTRWIIGINGRICRD [Nigroain-E-RA] | antimicrobial
GLLSGVLGVGKKIVCGLSGLC [Nigrosin-RA3] | antimicrobial
GLFTKFAGKGIKDLIFKGVKHIGKEVGMDVIRTGIDVAGCKIKGEC [Esculentin-1-RA4] | antimicrobial

Same assay, conditions: annotation in words; ref [4]; cited from earlier work

Substance | Functional effect
QMFHLWYLRHMKNKKPMA [Andersonin-X] | Insulin-Releasing, immunomodulating
TSRCIFYRRKKCS [Andersonin-G] | antimicrobial,Insulin-Releasing
FIFPKKNIINSLFGR [Andersonin-I1] | antimicrobial, Insulin-Releasing, immunomodulating
VVKFSYRKGSPAPQKN [Odorranain-A-OA12] | immunomodulating
ENMFNIKSSVESDSFWG [Andersonin-N1] | Insulin-Releasing, immunomodulating
GLLSGINAEWPC [OA-GL12] | wound-healing
VAIYGRDDRSDVCRQVQHNWLVCDTY [Andersonin-M3] | immunomodulating

Tested on: not given
Settings: previously reported ESPs in Odorrana grahami, Table S1; cited from earlier work
Excerpt: (§1) Supplement 12915_2025_2463_MOESM1_ESM.xlsx, sheet "Table S1" | column: Previously reported ESPs in Odorrana grahami

Substance | Functional effect: myotropic activities | Functional effect: lectin
QNTYRAPQWAVGHLM [odorranain-BLP-5] | myotropic activities | –
RPPGFSPFR [bradykinin] | myotropic activities | –
DDASDRAKKFYGLM [ranamargarin] | myotropic activities | –
QRECRAPHWAIGHFM [odorranain-BLP-1] | myotropic activities | –
QREYRTPHWAIGHFM [odorranain-BLP-3] | myotropic activities | –
YASPKCFRYPNGVLACT [odorranalectin] | – | lectin
QREYRAPHWAIGHFM [odorranain-BLP-4] | myotropic activities | –
QSTYRAPQWAVGHLM [odorranain-BLP-2] | myotropic activities | –
RPPGFTPFR [Thr6-bradykinin] | myotropic activities | –
DDTEDLANKFIGLM [tachykinin_OG1] | myotropic activities | –
RPPGLTPFR [Leu5Thr6-bradykinin] | myotropic activities | –

Same assay, conditions: previously reported ESPs in Odorrana grahami, Table S1; discovered in brain only; cited from earlier work

Substance | Functional effect: opioid peptide
DYTIRTRLHQESSRKVL [odorranaopin] | opioid peptide discovered in brain ONLY

Tested on: NO release
Settings: previously reported ESPs in Odorrana grahami, Table S1; cited from earlier work
Excerpt: as §1

Substance | Functional effect: inhibits NO release
GLGGAKKNFIIAANKTAPQSVKKTFSCKLYNG [odorranain-E1] | inhibits NO release
GLFGKILGVGKKVLCGLSGMC (disulfide 15-21 (inferred)) [nigrocin-2GRb, FSAP family mature peptide identified via LC-MS/MS in O. grahami skin secretion] | inhibits NO release

Tested on: trypsin
Settings: previously reported ESPs in Odorrana grahami, Table S1; cited from earlier work
Excerpt: as §1

Substance | Functional effect: trypsin inhibitor
AVNIPFKVHFRCKAAFC (disulfide 12-17 (inferred)) [OGTI, FSAP family mature peptide identified via LC-MS/MS in O. grahami skin secretion] | trypsin inhibitor
AALKGCWTKSIPPKPCFGKR [odorranain-B1] | trypsin inhibitor
